Reference: ChEMBL document CHEMBL1127204, “Synthesis of 1,3-diamino-2-hydroxypropane derivatives as pseudosymmetric HIV protease inhibitors” (Bioorg Med Chem Lett, 1993)
The source made the active and inactive calls. The calls are words filed in the database; no cut-off is given here.

target: Human immunodeficiency virus type 1 protease (Human immunodeficiency virus 1) (UniProt Q72874); assay: Tested in vitro for inhibition of HIV-1 protease at concentration of 10e-6 M; No activity

inhibition, inactive:
CC(C)C(NC(=O)CN(Cc1ccccc1)CC(O)CN(CC(=O)NC(C(=O)NC(C)(C)C)C(C)C)Cc1ccccc1)C(=O)NC(C)(C)C (centres undefined), CC(C)(C)NC(=O)C1Cc2ccccc2CN1CC(O)CN1Cc2ccccc2CC1C(=O)NC(C)(C)C (centres undefined), CC(C)C(NC(=O)C1Cc2ccccc2CN1CC(O)CN1Cc2ccccc2CC1C(=O)NC(C(=O)NC(C)(C)C)C(C)C)C(=O)NC(C)(C)C (centres undefined), N[C@H](CCNC(=O)C1Cc2ccccc2CN1CC(O)CN1Cc2ccccc2CC1C(=O)NCC[C@H](N)C(=O)O)C(=O)O (some centres undefined)
